15 molecules from ChEMBL document CHEMBL1148733, “Novel N7- and N1-substituted cGMP derivatives are potent activators of cyclic nucleotide-gated channels” (J Med Chem, 2007) can be followed below.

The subject of one experiment is HEK293. Particulars: Homo sapiens.
A further experiment has as its system Oocyte. The experiment is described as follows: Activation of retinal rod […] CNG A1B1 channel expressed in Xenopus oocytes assessed as effect on half maximal current. In kind it is cell-based. The following applies: Homo sapiens.

Molecules are shown by their SMILES.

Description for HEK293: Activation of olfactory CNG A2A41b channel expressed in HEK293 cells assessed as effect on half maximal current

`CO[C@@H]1[C@@H]2OP(=O)(O)OC[C@H]2O[C@H]1n1cnc2c(=O)n(C)c(N)nc21` gave a K1/2 with HEK293 of 290 µM. Same read-out and setting: with `CCCC(=O)O[C@@H]1[C@@H]2OP(=O)(O)OC[C@H]2O[C@H]1n1cnc2c(=O)[nH]c(N)nc21` the figure was 88 µM.

Consider `Nc1nc2c(c(=O)[nH]1)[n+]1c(n2[C@@H]2O[C@@H]3COP(=O)(O)O[C@H]3[C@H]2O)SCCC1`, for which the K1/2 in the experiment on HEK293 amounted to 10 µM. Regarding `Nc1nc2c([nH]c(=S)n2[C@@H]2O[C@@H]3COP(=O)(O)O[C@H]3[C@H]2O)c(=O)[nH]1`, the values for the K1/2 in the experiment with Oocyte and with HEK293 were 14 µM and 0.18 µM, respectively. In the case of `Nc1nc2c(nc(Sc3ccc(Cl)cc3)n2[C@@H]2O[C@@H]3COP(=O)(O)O[C@H]3[C@H]2O)c(=O)[nH]1`, the K1/2 in the experiment with Oocyte came out at 1 µM; in the experiment with HEK293 it was 0.073 µM. Take `CS(=O)(=O)CCn1c(=S)n([C@@H]2O[C@@H]3COP(=O)(O)O[C@H]3[C@H]2O)c2nc(N)[nH]c(=O)c21`: the K1/2 with HEK293 was 0.11 µM. Consider `Nc1nc2c(c(=O)[nH]1)n(CCS(=O)(=O)c1ccccc1)c(=S)n2[C@@H]1O[C@@H]2COP(=O)(O)O[C@H]2[C@H]1O`, for which the K1/2 worked out at 4.1 µM in the experiment on Oocyte and 0.082 µM in the experiment with HEK293.

Consider `CCCC(=O)Nc1nc2c(ncn2[C@@H]2O[C@@H]3COP(=O)(O)O[C@H]3[C@H]2O)c(=O)[nH]1`, for which the K1/2 in the experiment on HEK293 is 22 µM. The same measure, in the same setting: with `CO[C@@H]1[C@@H]2OP(=O)(O)OC[C@H]2O[C@H]1n1cnc2c(=O)[nH]c(N)nc21` the figure was 35 µM; with `CO[C@@H]1[C@@H]2OP(=O)(O)OC[C@H]2O[C@H]1n1c(Sc2ccc(Cl)cc2)nc2c(N)ncnc21`, 22 µM. For `Nc1nc2c(nc(Sc3ccc(Cl)cc3)n2[C@@H]2O[C@@H]3COP(=O)(O)O[C@H]3[C@H]2O)c(=O)n1CCS(=O)(=O)c1ccccc1`, the K1/2 is 12 µM in the experiment with Oocyte and 0.38 µM in the experiment with HEK293. On to `Nc1nc2c(nc(SCCS(=O)(=O)c3ccccc3)n2[C@@H]2O[C@@H]3COP(=O)(O)O[C@H]3[C@H]2O)c(=O)[nH]1`, for which the K1/2 in the experiment with HEK293 was 0.21 µM. In turn, `CS(=O)(=O)CCSc1nc2c(=O)[nH]c(N)nc2n1[C@@H]1O[C@@H]2COP(=O)(O)O[C@H]2[C@H]1O` gave a K1/2 with HEK293 of 0.37 µM.

In the experiment on HEK293, `Nc1ncnc2c1nc(Sc1ccc(Cl)cc1)n2[C@@H]1O[C@@H]2COP(=O)(O)O[C@H]2[C@H]1O` came in with a K1/2 of 0.55 µM.

Take `Nc1nc2c(ncn2[C@@H]2O[C@@H]3COP(=O)(O)O[C@H]3[C@H]2O)c(=O)[nH]1`: the K1/2 with Oocyte was 41 µM; with HEK293, 1.1 µM.
